Read-outs that look alike come from different tables or passages of the source.
Target: T1, human CB2 (Homo sapiens, UniProt P34972)
T1 construct: expressed in transfected cells; host or cells: CHO (Chinese Hamster Ovary) cells
Assay: Cyclic AMP assay (HTRF) in CHO cells expressing human CB2
Assay type: cell-based
Experimental: Chinese Hamster Ovary cells (CHO) expressing human CB1 or human CB2 (3.3×10^5 cells/ml) were preincubated for 15 min at room temperature with tested agonist and 3-isobutyl-1-methylxanthine (IBMX; 200 μM) in phosphate buffered saline containing 1 mg/ml BSA (assay buffer) followed by 30 min incubation with forskolin in a total volume of 10 μl. The optimal forskolin concentration for each cell line was established in a separate experiment and adjusted to stimulate 70% of maximal cAMP response. cAMP content was measured using an HTRF assay (CisBio) according to the manufacturer's two step protocol.

[1] = CHO cells expressing human CB2, forskolin-stimulated cAMP, IBMX 200 μM, read-out: CB2 IC50

T1 sequence (P34972 whole entry): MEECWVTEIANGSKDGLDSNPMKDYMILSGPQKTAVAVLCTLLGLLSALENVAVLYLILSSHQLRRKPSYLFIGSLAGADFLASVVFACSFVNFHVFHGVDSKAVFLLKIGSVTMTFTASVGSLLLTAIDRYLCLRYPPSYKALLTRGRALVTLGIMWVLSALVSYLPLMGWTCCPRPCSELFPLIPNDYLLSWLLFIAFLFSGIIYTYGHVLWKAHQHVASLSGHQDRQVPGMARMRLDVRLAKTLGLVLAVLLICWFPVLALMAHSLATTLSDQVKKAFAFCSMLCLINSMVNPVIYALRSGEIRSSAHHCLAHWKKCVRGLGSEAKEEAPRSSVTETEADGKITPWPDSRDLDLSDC

IC50 [1]	SMILES	IC50
617 nM	Fc1ccc(-c2cc(-c3nc(CN4CCOCC4)c4ccccn34)[nH]n2)cc1 [Example III-1, 3-[3-(4-fluorophenyl)-1H-pyrazol-5-yl]-1-(morpholin-4-ylmethyl)imidazo[1,5-a]pyridine]	–
116 nM	FC1(F)CCN(Cc2nc(-c3ccc(-c4ccn[nH]4)cc3)n3ccccc23)CC1 [IV-4, 1-[(4,4-DIFLUOROPIPERIDIN-1- YL)METHYL]-3-[4-(1H-PYRAZOL-5- YL)PHENYL]IMIDAZO[1,5-A]PYRIDINE]	–
113 nM	FC1(F)CCN(Cc2nc(-c3cccc(-n4cccn4)c3)n3ccccc23)CC1 [IV-7, 1-[(4,4-DIFLUOROPIPERIDIN-1- YL)METHYL]-3-[3-(1H-PYRAZOL-1- YL)PHENYL]IMIDAZO[1,5-A]PYRIDINE]	–

Continued, molecule first:

SMILES	IC50 [1]	IC50
c1ccc2[nH]c(-c3nc(CN4CCOCC4)c4ccccn34)nc2c1 [Example I-1, 2-[1-(morpholin-4-ylmethyl)imidazo[1,5-a]pyridin-3-yl]-1H-benzimidazole]	1260 nM	–
FC1(F)CCN(Cc2nc(-c3nc(-c4ccccc4)c[nH]3)n3ccccc23)CC1 [Example II-1, 1-[(4,4-difluoropiperidin-1-yl)methyl]-3-(4-phenyl-1H-imidazol-2-yl)imidazo[1,5-a]pyridine]	–	178 nM
FC1(F)CCN(Cc2nc(-c3cccc(C(F)(F)F)c3)n3ccccc23)CC1 [Example IV-1, 1-[(4,4-difluoropiperidin-1-yl)methyl]-3-[3-(trifluoromethyl)phenyl]imidazo[1,5-α]pyridine]	–	17 nM
FC1(F)CCN(Cc2nc(-c3nc(-c4ccc(Cl)cc4)c[nH]3)n3ccccc23)CC1 [II-2, 3-[4-(4-CHLOROPHENYL)-1H-IMIDAZOL-2- YL]-1-[(4,4-DIFLUOROPIPERIDIN-1- YL)METHYL]IMIDAZO[1,5-A]PYRIDINE]	199 nM	–
FC1(F)CCN(Cc2nc(-c3nc(-c4ccc(Cl)cc4Cl)c[nH]3)n3ccccc23)CC1 [II-3, 3-[4-(2,4-DICHLOROPHENYL)-1H- IMIDAZOL-2-YL]-1-[(4,4- DIFLUOROPIPERIDIN-1- YL)METHYL]IMIDAZO[1,5-A]PYRIDINE]	146 nM	–
Fc1ccc(-c2c[nH]c(-c3nc(CN4CCC(F)(F)CC4)c4ccccn34)n2)cc1F [II-4, 3-[4-(3,4-DIFLUOROPHENYL)-1H- IMIDAZOL-2-YL]-1-[(4,4- DIFLUOROPIPERIDIN-1-YL)METHYL] IMIDAZO[1,5-A]PYRIDINE]	171 nM	–
FC1(F)CCN(Cc2nc(-c3nc(-c4cccc(C(F)(F)F)c4)c[nH]3)n3ccccc23)CC1 [II-5, 1-[(4,4-DIFLUOROPIPERIDIN-1- YL)METHYL]-3-{4-[3- (TRIFLUOROMETHYL)PHENYL]-1H- IMIDAZOL-2-YL}IMIDAZO [1,5-A]PYRIDINE]	165 nM	–
CC(C)(O)CCc1ccc(-c2nc(CN3CCC(F)(F)CC3)c3ccccn23)cc1 [IV-6, 4-(4-{1-[(4,4-DIFLUOROPIPERIDIN-1- YL)METHYL]IMIDAZO[1,5-A]PYRIDIN-3- YL}PHENYL)-2-METHYLBUTAN-2-OL]	–	1350 nM
